A word on the melting point: it is the temperature of the solid-liquid transition.

Results on 86 compounds are retold here after a melting point compilation (Tetko et al.; mined from patent text by program, amines drawn as free bases though some values may be those of a salt).

The compound `CCn1c(COCc2ccc(OC)cc2)nc(C(C)C)c1Sc1cc(Cl)cc(Cl)c1` had a melting point of 120 to 121 °C.

On to `N#Cc1c(C(=Nc2ccccc2)c2ccccc2)n(O)c2ccccc12`, for which the melting point lay in the range of 188 to 190 °C.

Consider `CCOC(=O)c1ccc(N)cc1C(=O)OCC`, for which the melting point was 95.6 °C.

`COC(=O)[C@H]1[C@@H]2CC[C@@H](C2)[C@@H]1C(=O)O` came in with a melting point of 59 to 60 °C.

`CCc1cccc(C)c1CNc1cc(C(=O)O)cc2c1nc(COC)n2C` registered a melting point of 275 to 278 °C.

`COC(=O)c1c([N+](=O)[O-])cccc1S(=O)(=O)NC(C)(C)C`: the melting point fell in the range of 89 to 91 °C.

Consider `CCOC(=O)c1nc(N)sc1-c1cn2cc(C)ccc2n1`, for which the melting point lay in the range of 268 to 271 °C.

`Clc1ccc(-c2cn([C@H]3CN4CCC3CC4)nn2)cc1Cl` registered a melting point of 108 °C.

Regarding `Nc1nnnc(-c2c[nH]nn2)c1-c1cnnnn1`, the melting point was 215 °C.

On to `O=C1CCC(N2Cc3cc(CNC(=O)Nc4cccc5ccccc45)ccc3C2=O)C(=O)N1` (stereo unspecified), for which the melting point is 250 to 252 °C.

Take `CC1(C)Oc2cc([N+](=O)[O-])c(N)cc2[C@@H](N2CCCC2=O)[C@@H]1O` (relative stereo): the melting point lay within 244 to 245 °C.

In turn, `CCOC(=O)/C=C/c1ccc(O)c([N+](=O)[O-])c1` returned a melting point of 114 to 115 °C.

`CCCn1nc(C(C)C)c(C(=O)OCc2ccccc2C(=O)c2ccccc2)c1Cc1ccc(-c2ccccc2S(N)(=O)=O)c(F)c1` had a melting point of 49 to 51 °C.

`CCC(CCCCc1ccccc1)(CC(=O)O)S(=O)(=O)c1ccc(OC)cc1` (stereo unspecified): the melting point fell in the range of 44 to 46 °C.

Regarding `CCOC(=O)c1nnc2ccc(I)cc2c1O`, the melting point lay within 242 to 244 °C.

`CC(C)OC(=O)c1nn(-c2ccc(Cl)cc2)c(=O)c2c(N)scc12` had a melting point of 118 to 120 °C.

Compound `CC(=O)OC1C(C)=C(C)C(=O)N1c1ccc(Cl)c(Cl)c1` (stereo unspecified) had a melting point of 109 to 110 °C.

Compound `Cn1c(C(=O)O)cc2c3c(c(-c4ccccc4Cl)cc21)C(=O)NC3=O` registered a melting point of 301 to 302 °C.

Turning to `CC(C)n1nc(-c2c(OC3CCCCC3)nc(N)nc2-c2ccccc2)ccc1=O`, the melting point lay within 173 to 175 °C.

In turn, `c1ccc(OCNc2ccncc2)cc1` came in with a melting point of 159 to 160 °C.

In turn, `O=Cc1cc(-c2ccc(F)cc2F)ccc1OC(F)(F)F` showed a melting point of 39 to 41 °C.

Compound `CONc1ccc([N+](=O)[O-])cc1[N+](=O)[O-]` had a melting point of 110 to 112 °C.

For `CCN(CC)C1CCN(c2ccc(-c3[nH]nc4c3C(=O)c3c(NC(=O)NN5CCOCC5)cccc3-4)cc2)CC1`, the melting point is 251 °C.

For the compound `Nc1nc(Cl)c(Cl)nc1[N+](=O)[O-]`, the melting point was 169 to 170 °C.

The compound `CNC(=O)[C@@H](N)Cc1ccc(OC)cc1` had a melting point of 90 to 91 °C.

Turning to `COc1cccc(C=C2C(=O)c3ccccc3N2C(C)=O)c1[N+](=O)[O-]`, the melting point lay in the range of 161 to 162 °C.

`Cc1oc(-c2ccco2)nc1COc1ccc(COc2nn(Cc3ccccc3)cc2C=O)cc1OCc1ccccc1` registered a melting point of 130 to 131 °C.

In the case of `CC(=O)OCCc1ccc(C2=NNC(=O)CC2)cc1`, the melting point fell in the range of 94 to 96 °C.

Take `CC(C)(C)OC(=O)NC1Cc2cccc3[nH]c(=O)n(c23)C1` (stereo unspecified): the melting point is 235 to 236 °C.

Compound `CCn1cc(C)c(NS(=O)(=O)c2ccc(NC(C)=O)cc2)nc1=O` yielded a melting point of 235 to 239 °C.

As to `CCC(=O)c1cc(C(=O)O)c(=O)[nH]c1CC`, the melting point fell in the range of 180 to 182 °C.

In turn, `O=C(c1ccccc1)c1ccc(CP(=O)(O)O)cc1` displayed a melting point of 172 to 175 °C.

On to `CC(=O)NCCc1ccc(C=CC(=O)O)cc1`, for which the melting point was 206 to 208 °C.

The compound `C=C1N(C(C)C)C(=O)OC12CCN(C(=O)NC(=O)c1cccnc1Cl)CC2` displayed a melting point of 186 to 188 °C.

`C=C(c1ccc(OC)cc1)c1sc(C)nc1C` registered a melting point of 139 to 140 °C.

As to `CCC(=O)NCC1Cc2cccc3cccc1c23` (stereo unspecified), the melting point worked out at 111 °C.

Turning to `Cc1nc(-n2ccc(OCc3ccc(C(F)(F)F)o3)cc2=O)sc1C(=O)O`, the melting point fell in the range of 261 to 263 °C.

Consider `COC(=O)C(=O)c1ccc(SC)c(Cl)c1`, for which the melting point is 67.9 to 70.2 °C.

`CCc1cccc(CNC[C@@H](O)[C@H](Cc2cc(F)cc(F)c2)NC(=O)c2ccc3ccncc3c2)c1` registered a melting point of 142 to 143 °C.

The compound `CCCC(SCC(=O)O)c1cc2c(cc1C)OCO2` (stereo unspecified) registered a melting point of 77.5 to 78 °C.

With `N#Cc1c(C(F)(F)F)ccc(F)c1N`, the melting point is 100 to 102 °C.

In turn, `CCCCCC(CC(=O)Nc1cc(C(N)=O)ccc1CCCC)c1ccc(C(O)C(C)C)cc1OC` (stereo unspecified) yielded a melting point of 162 to 163 °C.

Take `CCCCc1nc(-c2ccc(C(=O)NCCC(C)(C)C)cc2)no1`: the melting point fell in the range of 78 to 80 °C.

Compound `N#Cc1cc(-c2nc3cncnc3s2)ccc1Oc1cccc(F)c1` showed a melting point of 189 to 190 °C.

The compound `CCSc1nc(-c2ccco2)c2ncn(Cc3ccc(OC)cc3)c2n1` displayed a melting point of 116 to 117 °C.

As for `COc1ccc2c(c1)CCC1C3=CC(C)=C(OC(C)=O)C3(C)CCC21` (stereo unspecified), the melting point fell in the range of 129 to 130 °C.

`COc1ccc(S(=O)(=O)C(C)(CC2CCCCC2)C(=O)NO)cc1` (stereo unspecified) displayed a melting point of 58 °C.

For the compound `Cc1ccc(-c2nn3cccnc3c2CC(=O)N(C)C)cc1`, the melting point lay within 164 to 165 °C.

On to `COC(=O)[C@@H]1C[C@H](NS(C)(=O)=O)C(=O)[C@H]2[C@@]1(C)CC[C@H]1C(=O)O[C@H](c3ccoc3)C[C@]21C`, for which the melting point fell in the range of 262 to 265 °C.

Take `CCCOc1cccc(C(=O)O)c1O`: the melting point is 114 to 118 °C.

Turning to `CC(CCNC(=O)C(C#N)=Cc1ccc(O)c(O)c1)NC(=O)C(C#N)=Cc1ccc(O)c(O)c1` (stereo unspecified), the melting point stood at 281 °C.

`Cc1cc(N)c(C(=O)O)cc1F` returned a melting point of 201 to 202 °C.

Take `COc1cc(N2CCC(N3CCCOCC3)CC2)ccc1Nc1ncc2ccc(-c3ccccc3OC)n2n1`: the melting point was in the range of 75 to 82 °C.

On to `CCCCOCCOc1ccc(-c2ccc3c(c2)C=C(C(=O)O)CCN3c2ccc(S(N)(=O)=O)cc2)cc1`, for which the melting point was in the range of 185 to 195 °C.

For `Cn1nnnc1CO/N=C(\C(=O)O)c1csc(N)n1`, the melting point is 185 °C.

In turn, `CC(=CC(N)[C@@H]1CN(c2ccc(-c3cccnc3)cn2)C(=O)O1)[N+](=O)[O-]` (stereo partly specified) showed a melting point of 207 °C.

The compound `C/C(=C\COc1ccc(Cl)cc1Cl)C(=O)O` returned a melting point of 117 to 122 °C.

For `CC(C)(C)OC(=O)NN=C1C2CC3CC(C2)CC1C3`, the melting point lay within 175 to 177 °C.

For the compound `COc1ccc(N(CCN2CCC(C(=O)c3ccc(F)cc3)CC2)C(=O)c2ccc([N+](=O)[O-])cc2)c(OC)c1`, the melting point fell in the range of 51 to 54 °C.

`O=C(O)C=CC(=O)c1ccco1` displayed a melting point of 153 to 155 °C.

In turn, `COc1cc2cc(CO)nc(-c3ccnc(-n4nc(-c5cccnc5)c5ccccc5c4=O)c3)c2cc1OC` returned a melting point greater than 250 °C.

As to `O=Cn1cc(Cl)c(-c2cccc(Cl)c2[N+](=O)[O-])c1`, the melting point is 138 °C.

Compound `CNc1ncn(-c2ccccc2C)c(=O)n1` returned a melting point of 192 °C.

For `CCn1ccc2c(c1=O)CN=C(N1CCNCC1)N2`, the melting point was 117 to 120 °C.

In turn, `COc1cc2ncc(C#N)c(Nc3ccc(Sc4ccccc4)c(Cl)c3)c2cc1OC` gave a melting point of 124 to 130 °C.

For `Cc1ccccc1Sc1cccc(C(C)C(=O)O)c1O` (stereo unspecified), the melting point is 123 to 125 °C.

`O=c1[nH]c(=O)n(CCCCN2CCC(OC(c3ccccc3)c3ccccc3)CC2)c2cc([N+](=O)[O-])ccc12`: the melting point fell in the range of 214 to 215 °C.

Take `Cc1cc(CSCCNC(=C[N+](=O)[O-])NCC(O)c2ccccc2)sc1CN(C)C` (stereo unspecified): the melting point lay within 114 to 115 °C.

In turn, `CCCC1(COC)CCCSc2cc(/C=C/c3ccc(C(=O)O)cc3)ccc21` (stereo unspecified) displayed a melting point of 169 to 170 °C.

Regarding `Cc1ccsc1C(=O)N1CCC(Sc2ccc(CCNC[C@H](O)COc3ccc(O)cc3)cc2)CC1`, the melting point is 135 to 144 °C.

For the compound `CCCC(=NO)c1ccc(OCOC)cc1`, the melting point was 74 to 76 °C.

The compound `COC1(c2ccc(C(F)(F)F)cc2CN(Cc2cc(C(F)(F)F)cc(C(F)(F)F)c2)c2nnn(C)n2)CCCCCC1` came in with a melting point of 103 to 104 °C.

With `Cc1sc2c(c1C)C(c1ccc(Cl)cc1)=NC(CC(=O)NCCN)c1nnc(C)n1-2` (stereo unspecified), the melting point lay within 142 to 146 °C.

`CC1=C(C2C=CN(C(=O)OCC(Cl)(Cl)Cl)C=C2)SCC(=O)N1` came in with a melting point of 158 to 160 °C.

On to `N#Cc1cc(Cn2cncn2)cc(-c2ccc(F)cc2)c1`, for which the melting point was in the range of 134 to 135 °C.

`CC(C)Oc1cc(CCC(=O)NS(=O)(=O)c2ccccc2)n(Cc2ccc(Cl)cc2Cl)n1`: the melting point was in the range of 184 to 185 °C.

The compound `CN1C(C(=O)OCCO)=C(O)c2ccccc2S1(=O)=O` displayed a melting point of 122 to 123 °C.

In turn, `CCOC(=O)c1cnn2c1nc(N1CCCCC1)c1cnc3c(cnn3CC)c12` yielded a melting point of 183 to 184 °C.

The compound `CNC[C@@H]1CN(c2nc3c(cc2F)c(=O)c(C(=O)O)cn3C2CC2)C[C@@H]1F` (relative stereo) registered a melting point of 230 to 240 °C.

In turn, `COc1ccc(N2CCN(c3c(C)c(C)c4c(c3C)C(c3ccc(C)cc3)C(C)(C)O4)CC2)cc1` (stereo unspecified) registered a melting point of 189 to 191 °C.

In turn, `CCOC(=O)C1=C(C)NC(c2ccco2)=C(C(=O)OCC)C1c1cccc([N+](=O)[O-])c1` (stereo unspecified) showed a melting point of 130 to 131 °C.

As to `CCNC(=NS(=O)(=O)c1ccc(Cl)cc1)N1CC(c2ccccc2)C(c2ccc(Cl)cc2)=N1` (single isomer, unassigned; (-)), the melting point was 172 to 175 °C.

`Cc1nn(-c2cc(C(=O)NS(=O)(=O)N(C)C(C)C)c(Cl)cc2F)c(=O)n1C(F)F`: the melting point was in the range of 118 to 122 °C.

Compound `CN(C)C=Nc1nc(OC(=O)c2ccccc2)ncc1F` gave a melting point of 136 to 138 °C.

Take `CC(C)c1ccc(S(=O)(=O)c2ccc(F)cc2)c(C(C)C)c1`: the melting point lay within 75 to 80 °C.

As for `CCOc1cc2ncc(C#N)c(NCc3ccc(OC)c(OC)c3)c2cc1OCC`, the melting point lay in the range of 200 to 204 °C.
